Like-named read-outs stand apart in the source and are kept apart here.
Tests used:
[1] = molecular target: T1, sLFA-1/ICAM-1 (Homo sapiens, UniProt P05107+P20701); assay: sLFA-1/ICAM-1 ELISA (LFA1 Adhesion Assay); assay type: binding
T1 construct: 2.0 ug/ml solution of sLFA-1 or Mac-1 receptor
Procedure: The following assay was conducted to assess effect of targeted molecules on the sLFA-1/ICAM-1 ELISA and Mac-1/ICAM-1 interactions.
Plates were coated with either 50 μl/well of 2.0 ug/ml solution of sLFA-1 or Mac-1 receptor in divalent cation buffer (1 mM MnCI2, 0.14M NaCl, 20 mM HEPES pH 7.2) at 4° C. overnight. Two hundred fifty μl of blocking buffer (1% BSA in divalent cation buffer) was added to each well 1 hour at 37° C. Plates were washed 3 times with wash buffer (TBS/0.05% Tween-20/1 mM MnCl2). The compound to be tested was solubilized in DMSO. […] Fifty μl of binding buffer (0.5% BSA in divalent cation buffer)/1% DMSO and 50 μl of the solutions to be tested were added to the appropriate wells and incubated for 1 hour. Fifty μl of 5dICAM-Fc (27 ng/ml) was added to the appropriate wells and 50 μl binding buffer was added to non-specific binding wells and incubated for 2 hours and washed. One hundred μl of 1:4000 HRP-goat anti-huIgG was added to each well and incubated for 1 hour and washed. One hundred μl of 1:1 TMB solution was added to each well and developed for 20 min at room temperature. Color development was stopped by adding 100 μl H3PO4 to each well. Absorbance was measured at 450 nm.

[2] = test system: Jurkat Cells/VCAM-1; assay: Jurkat Cells/VCAM-1 Adhesion Assay; assay type: cell-based; details: Table 4
[3] = test system: AHA1 mRNA; assay: Knock-down of AHA1 mRNA by 5′-sense strand modified siRNA (Branched DNA Assay); assay type: cell-based; details: H1299 cells, siRNA 50 nM, DharmaFect-1 reverse transfection, 48 hours
Procedure: Assay of 5′-Sense Strand Modified siRNA for Knock-Down of AHA1 mRNA in Cellular Systems
Reference gene: GAPDH Cell line: H1299_Nut-One Plating density: 5,000 cells/well Plating format: 96-well Time from plating to treatment: 0 Control treatment: mock, untreated, control siRNA Transfection reagent: DharmaFectl
TF Reagent volume/well […] siRNA final concentration 50 nM Assay method: Day 1 manual/Day 2 Washer
Reverse transfection: H1299 cells were transfected with indicated siRNA at final concentration of 50 nM using DharmaFect-1 transfection reagent at 0.15 μl/well. Cells were then plated into 96-well plate at 5000 cells/well and incubated at 37° C. for 48 hours.
The efficacy of siRNA knock-down was measured with a Branched DNA Assay as reported by the vendor; the results of such knockdown are shown in FIG. 5. The relative cell viability was assessed by the absolute expression of GAPDH in the same well (FIG. 6).

[4] = Table 4, read-out: LFA1 Adhesion Assay
[5] = control compounds, read-out: IC50

T1 sequence (P20701 26-1090 limits assumed): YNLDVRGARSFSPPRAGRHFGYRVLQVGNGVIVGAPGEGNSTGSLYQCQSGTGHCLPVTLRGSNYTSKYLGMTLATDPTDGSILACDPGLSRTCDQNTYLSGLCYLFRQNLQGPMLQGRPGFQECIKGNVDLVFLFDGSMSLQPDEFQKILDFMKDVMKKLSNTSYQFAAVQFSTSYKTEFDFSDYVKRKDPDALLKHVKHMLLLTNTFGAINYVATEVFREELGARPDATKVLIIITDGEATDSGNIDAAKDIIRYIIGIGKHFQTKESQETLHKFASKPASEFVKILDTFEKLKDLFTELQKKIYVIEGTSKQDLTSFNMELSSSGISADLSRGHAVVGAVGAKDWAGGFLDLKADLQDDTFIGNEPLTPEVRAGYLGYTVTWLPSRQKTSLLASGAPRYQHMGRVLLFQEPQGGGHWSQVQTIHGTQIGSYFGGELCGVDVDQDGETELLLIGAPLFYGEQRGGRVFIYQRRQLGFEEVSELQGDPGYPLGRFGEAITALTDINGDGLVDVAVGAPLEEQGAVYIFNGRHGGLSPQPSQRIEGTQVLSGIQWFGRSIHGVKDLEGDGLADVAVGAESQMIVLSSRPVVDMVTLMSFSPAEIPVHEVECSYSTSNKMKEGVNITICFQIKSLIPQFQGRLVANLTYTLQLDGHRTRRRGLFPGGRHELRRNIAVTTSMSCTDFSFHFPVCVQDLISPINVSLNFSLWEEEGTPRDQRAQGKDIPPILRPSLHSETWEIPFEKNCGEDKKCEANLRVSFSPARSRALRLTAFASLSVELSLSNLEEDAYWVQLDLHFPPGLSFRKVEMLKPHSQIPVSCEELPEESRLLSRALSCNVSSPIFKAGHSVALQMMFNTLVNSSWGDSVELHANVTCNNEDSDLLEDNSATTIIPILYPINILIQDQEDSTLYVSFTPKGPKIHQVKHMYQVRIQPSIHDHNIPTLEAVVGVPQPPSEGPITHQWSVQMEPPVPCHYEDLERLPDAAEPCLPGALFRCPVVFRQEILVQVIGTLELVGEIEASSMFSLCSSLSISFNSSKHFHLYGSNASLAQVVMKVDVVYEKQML
T1 sequence (P05107 23-700 limits assumed): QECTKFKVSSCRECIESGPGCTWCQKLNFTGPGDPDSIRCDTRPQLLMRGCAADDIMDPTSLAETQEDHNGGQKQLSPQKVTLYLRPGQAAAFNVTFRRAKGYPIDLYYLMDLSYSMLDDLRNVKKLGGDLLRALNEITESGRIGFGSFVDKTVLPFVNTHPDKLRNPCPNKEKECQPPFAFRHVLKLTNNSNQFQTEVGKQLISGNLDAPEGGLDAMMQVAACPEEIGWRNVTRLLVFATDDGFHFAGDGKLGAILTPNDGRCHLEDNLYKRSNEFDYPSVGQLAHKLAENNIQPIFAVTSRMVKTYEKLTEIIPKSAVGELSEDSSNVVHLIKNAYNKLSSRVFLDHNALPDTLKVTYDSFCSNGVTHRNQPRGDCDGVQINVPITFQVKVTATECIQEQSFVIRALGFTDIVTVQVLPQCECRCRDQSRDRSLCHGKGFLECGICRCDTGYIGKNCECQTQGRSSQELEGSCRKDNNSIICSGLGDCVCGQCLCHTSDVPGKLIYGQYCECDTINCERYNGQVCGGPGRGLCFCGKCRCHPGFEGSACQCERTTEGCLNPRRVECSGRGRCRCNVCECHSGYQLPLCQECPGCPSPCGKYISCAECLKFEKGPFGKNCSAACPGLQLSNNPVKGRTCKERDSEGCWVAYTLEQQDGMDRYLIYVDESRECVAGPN

IC50 [1, 4] [nM] | IC50 ([1]; Table 5, read-out: LFA1 Adhesion Assay (IC50 nM)) [nM] | IC50 [1, 5] [nM] | Compound | IC50 [2] [nM] | AHA1 % KD [3] [%]
37 | 74 | ~37 | Cc1cc(C(=O)NCc2cccc(Cl)c2)cc(C)c1C(=O)N[C@@H](CNC(=O)c1cccs1)C(=O)O [compound 142] | – | –
11 | – | ~11 | O=C(NCc1cccc(O)c1)c1cc(Cl)c(C(=O)N[C@@H](CNC(=O)c2cc(O)cc(O)c2)C(=O)O)c(Cl)c1 [compound 143] | – | –
– | – | – | Duplex-1: AHA1 siRNA duplex without targeting element: Sense-1 GGAuGAAGuGGAGAuuAGudTsdT, Antisense-1 ACuAAUCUCcACUUcAUCCdTsdT (sense GGAUGAAGUGGAGAUUAGUTT; antisense ACUAAUCUCCACUUCAUCCTT; lowercase nucleotides modified, meaning not given here, dTsdT 3' overhang) | > 200 | 98

Reference: patent publication US20130197059A1, “INTEGRIN ANTAGONIST CONJUGATES FOR TARGETED DELIVERY TO CELLS EXPRESSING LFA-1” (Hoffmann-La Roche Inc., priority 2012, published 2013)
